The source of these data is patent publication US20140005163A1 (NOVARTIS AG, priority 2010, published 2014).

In brackets after ≈: the same amount, converted by molar mass. Where two headings read alike, the source gives them in different places.

A short description of series [1]: Solubility at pH 6.8. In kind it is physicochemical. The essentials:
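Following the procedure of Zhou et al. (2007), compound solubility was determined at pH 6.8.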

In series [2] the target is T1, PI3K alpha (Homo sapiens, UniProt P42336).
T1 construct: p85(iSH2) fusion partner (see partner chain) (N); His tag (C); made in house; host or cells: baculovirus; Tn5 (Trichoplusia ni) or TiniPro insect cells
As to the kind of experiment: PI3K alpha kinase assay (Kinase-Glo luminescence). In kind it is biochemical. The essentials: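 Compounds are titrated at 8 concentrations and mixed with PI3Kα protein (EMV B1075, 10 nM) in phosphatidylinositol (10 μg/mL). ATP at 1 μM starts the 60-minute room-temperature reaction, which is stopped with Kinase-Glo before luminescence reading. Four-parameter curve fitting gives IC50.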
For orientation: In Kinase-Glo more light means more ATP remaining.

Series [3] concerns the target T2, PI3K delta (Homo sapiens, UniProt O00329).
T2 construct: for the full-length p110-d subunit are generated and fused by overlapping PCR; p85(iSH2) fusion partner (see partner chain) (N); His tag (C); made in house; host or cells: baculovirus; Tn5 (Trichoplusia ni) or TiniPro insect cells
As to the kind of experiment: PI3K delta kinase assay (Kinase-Glo luminescence). In kind it is biochemical. In a few lines:
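ATP 1 μM, PI 10 μg/mL, PI3Kδ construct BV1060 10 nM (final); 10 mM Tris pH 7.5, 3 mM MgCl2, 50 mM NaCl, 0.05% CHAPS, 1 mM DTT; 60 min RT; Kinase-Glo stop, luminescence.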

Series [4] deals with T3, PI3K gamma (Homo sapiens, UniProt P48736).
T3 construct: His tag (C); made in house; host or cells: baculovirus (pVL1393); Tn5 or TiniPro insect cells; construct from Roger Williams lab, MRC LMB
As to the kind of experiment: PI3K gamma kinase assay (Kinase-Glo luminescence). In kind it is biochemical. The protocol: In a more preferred assay, the kinase reaction is performed in a final volume of 10 μL per well of a low volume non binding CORNING, 384 well black plate (Cat. No. #3676). The final concentrations of ATP and phosphatidyl inositol (PI) in the assay are 1 μM and 10 μg/mL respectively. The reaction is started by the addition of ATP.
The components of the assay are added per well as follows:
[…] in 90% DMSO per well, in columns 1-20, 8 concentrations (1/3 and 1/3.33 serial dilution step) in single. • Low control: […] of 90% DMSO in half the wells of columns 23-24 (0.45% in final). • High control: […] of reference compound (e.g. compound of Example 7 in WO 2006/122806) in the other half of columns 23-24 (2.5 μM in final). • Standard: […] of reference compound as just mentioned diluted as the test compounds in columns 21-22 • 20 mL ‘buffer’ are prepared per assay: • 200 μL of 1M TRIS HCl pH7.5 (10 mM in final) • 60 μL of 1M MgCl2 (3 mM in final) • 500 μL of 2M NaCl (50 mM in final) • 100 μL of 10% CHAPS (0.05% in final) • 200 μL of 100 mM DTT (1 mM in final) • 18.94 mL of nanopure water • 10 mL ‘PI’ are prepared per assay: • 200 μL of 1 mg/ml L-alpha-Phosphatidylinositol (Liver Bovine, Avanti Polar Lipids Cat. No. 840042C MW=909.12) prepared in 3% OctylGlucoside (10 μg/ml in final) • 9.8 mL of ‘buffer’ • 10 mL ‘ATP’ are prepared per assay: • 6.7 μL of 3 mM stock of ATP giving a final concentration of 1 μM per well • 10 mL of ‘buffer’ • 2.5 mL of each PI3K construct are prepared per assay in ‘PI’ with the following final concentration: • 10 nM PI3K alfa EMV B1075 • 25 nM beta EMV BV949 • 10 nM delta EMV BV1060 • 150 nM gamma EMV BV950 • 5 μL of ‘PI/PI3K’ are added per well. • 5 μl ‘ATP’ are added per well to start the reaction. • The plates are then incubated at room temperature for 60 minutes (alfa, beta, delta) or 120 minutes (gamma). • The reaction is terminated by the addition of 10 μL Kinase-Glo (Promega Cat. No. #6714). • The assay plates are read after 10 minutes in Synergy 2 reader (BioTek, Vermont USA) with an integration time of 100 milliseconds and sensitivity set to 191. • Output: The High control is around 60'000 counts and the Low control is 30'000 or lower • This luminescence assay gives a useful Z′ ratio between 0.4 and 0.7
IC50 is determined by a four parameter curve fitting routine that comes along with “excel fit”. […] Alternatively, IC50 values are calculated using idbsXLfit model 204, which is a 4 parameter logistic model.

Series [5] deals with PKB Ser473 phosphorylation in Rat1-myr-HA-p110 beta cells. As to the kind of experiment: Reverse protein array assay, PKB Ser473 phosphorylation in Rat1-myr-p110 beta cells. In kind it is cell-based. As to conditions: 0.5 h, pAkt Ser473, 30 minutes incubation, read-out: p-PKB IC50. The essentials: (§1)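 Compound exposure lasted 30 min in Rat1 cells bearing membrane-targeted HA-p110 isoforms, using 8 serial concentrations. Arrayed lysates, each spotted at four dilutions, gave relative fluorescence signals for phospho-Ser473 PKB.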

Series [6] has as its target T4, PI3K beta (Homo sapiens, UniProt P42338).
T4 construct: for the full-length p110-b subunit are generated and fused by overlapping PCR; p85(iSH2) fusion partner (see partner chain) (N); His tag (C); made in house; host or cells: baculovirus; Tn5 (Trichoplusia ni) or TiniPro insect cells
As to the kind of experiment: PI3K beta kinase assay (Kinase-Glo luminescence). In kind it is biochemical. In a few lines:
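IC50 is derived by four-parameter logistic curve fitting of Kinase-Glo luminescence, which measures ATP left after a 60 min room-temperature reaction. Conditions are 25 nM His-tagged p85(iSH2)-p110β, 1 μM ATP and 10 μg/mL bovine liver phosphatidylinositol.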

The test system of series [7] is PKB Ser473 phosphorylation in Rat1-myr-HA-p110 alpha cells. As to the kind of experiment: Reverse protein array assay, PKB Ser473 phosphorylation in Rat1-myr-p110 alpha cells. In kind it is cell-based. As to conditions: 0.5 h, pAkt Ser473, 30 minutes compound incubation, read-out: p-PKB IC50. The essentials: as §1
The test system of series [8] is PKB Ser473 phosphorylation in Rat1-myr-HA-p110 delta cells. As to the kind of experiment: Reverse protein array assay, PKB Ser473 phosphorylation in Rat1-myr-p110 delta cells. In kind it is cell-based. As to conditions: read-out: p-PKB IC50. The essentials:
as §1

Series [9] deals with T5, mTOR (Homo sapiens, UniProt P42345).
T5 construct: purchased Invitrogen Corporation (Carlsbad/CA, USA) PV4753
As to the kind of experiment: Biochemical assay for m-TOR by TR-FRET. As to conditions: 8 μM ATP, 400 nM GFP-4EBP1, 0.5 nM mTOR. The essentials: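 Enzyme 0.5 nM, GFP-4EBP1 400 nM, ATP 8 μM (all final); 50 mM HEPES pH 7.5, 10 mM MnCl2, 1 mM DTT; rt. Detection: Tb-α-p4EBP1 [pT46] 0.5 nM in EDTA, TR-FRET, 15 min. Reference compound on every plate, 16-point duplicate dilutions.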
On the technique in general: In TR-FRET formats the signal depends on donor and acceptor labels being close together.

For series [10], the system named is S6 Ribosomal Protein phosphorylation Ser235/236 in TSC1 null mouse embryo fibroblast (MEF) cells. As to the kind of experiment: Reverse protein array assay, S6 Ribosomal Protein phosphorylation Ser235/236 in TSC1 null MEF cells. The following applies: 1 h, pS6 ribosomal protein Ser235/236, 60 minutes incubation, read-out: p-S6 IC50. In kind it is cell-based. The essentials: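 TSC1−/− MEFs, seeded and held ≥20 h at 37 °C/5% CO2, were exposed to 8-step serial compound dilutions (0.02% DMSO final; DMSO vehicle control) for 60 min at 37 °C. Cells were then lysed on ice for 10 min and lysates spotted onto reverse protein array chips.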

Setting [11] is: pH 6.8, aqueous buffer, thermodynamic from solid, read-out: solubility.

T3 sequence (P48736 144-1102 limits assumed): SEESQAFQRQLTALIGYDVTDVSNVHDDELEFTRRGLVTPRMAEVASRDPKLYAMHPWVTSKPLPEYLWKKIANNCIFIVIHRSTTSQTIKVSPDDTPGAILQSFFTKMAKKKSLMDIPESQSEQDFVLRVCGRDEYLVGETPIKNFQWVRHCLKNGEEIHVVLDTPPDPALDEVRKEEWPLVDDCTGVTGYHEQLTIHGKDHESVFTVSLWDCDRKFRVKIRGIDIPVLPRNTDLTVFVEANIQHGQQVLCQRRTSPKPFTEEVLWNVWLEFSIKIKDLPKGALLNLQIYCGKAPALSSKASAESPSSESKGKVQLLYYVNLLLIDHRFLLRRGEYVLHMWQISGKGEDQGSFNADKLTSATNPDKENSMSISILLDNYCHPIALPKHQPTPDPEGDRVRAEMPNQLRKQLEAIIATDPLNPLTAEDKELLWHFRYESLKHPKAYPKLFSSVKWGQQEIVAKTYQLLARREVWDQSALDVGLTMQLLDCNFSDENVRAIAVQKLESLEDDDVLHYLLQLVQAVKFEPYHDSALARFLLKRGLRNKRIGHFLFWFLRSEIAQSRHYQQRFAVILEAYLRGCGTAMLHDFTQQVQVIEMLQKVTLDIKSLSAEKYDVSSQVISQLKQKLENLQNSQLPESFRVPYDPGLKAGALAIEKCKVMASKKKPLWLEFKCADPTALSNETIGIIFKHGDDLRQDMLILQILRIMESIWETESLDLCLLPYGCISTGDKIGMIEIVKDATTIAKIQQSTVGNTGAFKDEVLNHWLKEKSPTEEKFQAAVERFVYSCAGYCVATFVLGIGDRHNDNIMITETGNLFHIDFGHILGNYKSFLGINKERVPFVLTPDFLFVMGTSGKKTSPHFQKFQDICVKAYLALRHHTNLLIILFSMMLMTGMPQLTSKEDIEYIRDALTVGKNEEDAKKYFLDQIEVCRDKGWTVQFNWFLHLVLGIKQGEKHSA
T4 sequence (P42338 with tags, fused parts or gaps limits assumed): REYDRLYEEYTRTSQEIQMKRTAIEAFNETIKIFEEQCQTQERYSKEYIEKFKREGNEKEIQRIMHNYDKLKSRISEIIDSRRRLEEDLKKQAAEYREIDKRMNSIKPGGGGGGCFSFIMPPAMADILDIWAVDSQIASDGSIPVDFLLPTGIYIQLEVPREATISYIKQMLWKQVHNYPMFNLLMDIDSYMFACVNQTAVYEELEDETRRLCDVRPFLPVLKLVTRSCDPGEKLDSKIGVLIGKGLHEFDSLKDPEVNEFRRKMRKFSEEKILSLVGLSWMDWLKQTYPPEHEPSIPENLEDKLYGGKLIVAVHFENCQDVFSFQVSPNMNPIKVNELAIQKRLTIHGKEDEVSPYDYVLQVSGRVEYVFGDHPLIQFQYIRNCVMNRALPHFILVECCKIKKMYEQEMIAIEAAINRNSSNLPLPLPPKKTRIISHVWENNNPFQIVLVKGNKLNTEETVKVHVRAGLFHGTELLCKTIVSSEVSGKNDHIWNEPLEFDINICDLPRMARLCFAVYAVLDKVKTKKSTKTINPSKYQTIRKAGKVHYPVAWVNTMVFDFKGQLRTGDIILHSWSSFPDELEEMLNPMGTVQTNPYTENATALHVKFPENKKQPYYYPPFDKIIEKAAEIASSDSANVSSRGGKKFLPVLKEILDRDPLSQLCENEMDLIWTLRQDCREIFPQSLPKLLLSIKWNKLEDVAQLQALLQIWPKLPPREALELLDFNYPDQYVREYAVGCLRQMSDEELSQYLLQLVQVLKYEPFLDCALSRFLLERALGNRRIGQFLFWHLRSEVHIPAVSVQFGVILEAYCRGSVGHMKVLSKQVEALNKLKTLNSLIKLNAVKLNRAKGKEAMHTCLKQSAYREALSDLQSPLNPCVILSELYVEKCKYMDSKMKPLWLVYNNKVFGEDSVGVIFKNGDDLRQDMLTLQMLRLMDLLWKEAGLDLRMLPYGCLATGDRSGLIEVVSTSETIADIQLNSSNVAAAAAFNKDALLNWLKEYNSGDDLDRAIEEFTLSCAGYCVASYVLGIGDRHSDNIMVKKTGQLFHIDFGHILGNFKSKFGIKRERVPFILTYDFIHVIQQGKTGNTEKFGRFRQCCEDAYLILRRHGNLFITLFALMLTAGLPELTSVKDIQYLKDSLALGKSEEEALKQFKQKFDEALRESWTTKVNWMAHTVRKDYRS
T1 sequence (P42336 with tags, fused parts or gaps limits assumed): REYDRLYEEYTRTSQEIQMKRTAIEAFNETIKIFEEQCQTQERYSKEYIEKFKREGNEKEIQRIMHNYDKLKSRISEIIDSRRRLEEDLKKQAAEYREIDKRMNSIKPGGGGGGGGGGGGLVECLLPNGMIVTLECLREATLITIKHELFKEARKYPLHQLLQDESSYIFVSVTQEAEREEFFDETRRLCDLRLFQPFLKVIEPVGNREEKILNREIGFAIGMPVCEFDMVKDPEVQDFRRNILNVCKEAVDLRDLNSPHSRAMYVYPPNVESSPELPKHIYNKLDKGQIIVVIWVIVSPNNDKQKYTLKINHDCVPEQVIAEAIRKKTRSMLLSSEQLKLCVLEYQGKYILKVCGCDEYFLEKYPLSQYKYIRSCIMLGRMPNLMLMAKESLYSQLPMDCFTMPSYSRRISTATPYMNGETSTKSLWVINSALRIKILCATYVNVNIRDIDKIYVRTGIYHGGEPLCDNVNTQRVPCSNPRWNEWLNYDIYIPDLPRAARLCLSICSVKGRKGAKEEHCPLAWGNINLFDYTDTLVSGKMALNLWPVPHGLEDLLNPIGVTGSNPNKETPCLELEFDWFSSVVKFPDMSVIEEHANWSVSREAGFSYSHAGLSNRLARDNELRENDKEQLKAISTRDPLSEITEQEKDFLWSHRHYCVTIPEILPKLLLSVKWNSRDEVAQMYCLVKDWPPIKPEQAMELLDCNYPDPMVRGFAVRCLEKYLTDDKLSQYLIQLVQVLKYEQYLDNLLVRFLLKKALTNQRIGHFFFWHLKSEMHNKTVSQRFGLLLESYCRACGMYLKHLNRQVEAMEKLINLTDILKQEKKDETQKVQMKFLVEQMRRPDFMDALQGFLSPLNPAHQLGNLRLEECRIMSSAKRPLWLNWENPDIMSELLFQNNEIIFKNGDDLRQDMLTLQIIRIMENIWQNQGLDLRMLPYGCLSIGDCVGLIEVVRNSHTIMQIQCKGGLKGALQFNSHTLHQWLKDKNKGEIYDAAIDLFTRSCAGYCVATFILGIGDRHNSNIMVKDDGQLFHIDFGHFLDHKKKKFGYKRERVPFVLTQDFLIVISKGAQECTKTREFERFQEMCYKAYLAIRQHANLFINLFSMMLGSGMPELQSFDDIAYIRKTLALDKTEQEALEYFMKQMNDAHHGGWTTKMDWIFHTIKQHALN
T5 sequence (P42345 1360-2549 limits assumed): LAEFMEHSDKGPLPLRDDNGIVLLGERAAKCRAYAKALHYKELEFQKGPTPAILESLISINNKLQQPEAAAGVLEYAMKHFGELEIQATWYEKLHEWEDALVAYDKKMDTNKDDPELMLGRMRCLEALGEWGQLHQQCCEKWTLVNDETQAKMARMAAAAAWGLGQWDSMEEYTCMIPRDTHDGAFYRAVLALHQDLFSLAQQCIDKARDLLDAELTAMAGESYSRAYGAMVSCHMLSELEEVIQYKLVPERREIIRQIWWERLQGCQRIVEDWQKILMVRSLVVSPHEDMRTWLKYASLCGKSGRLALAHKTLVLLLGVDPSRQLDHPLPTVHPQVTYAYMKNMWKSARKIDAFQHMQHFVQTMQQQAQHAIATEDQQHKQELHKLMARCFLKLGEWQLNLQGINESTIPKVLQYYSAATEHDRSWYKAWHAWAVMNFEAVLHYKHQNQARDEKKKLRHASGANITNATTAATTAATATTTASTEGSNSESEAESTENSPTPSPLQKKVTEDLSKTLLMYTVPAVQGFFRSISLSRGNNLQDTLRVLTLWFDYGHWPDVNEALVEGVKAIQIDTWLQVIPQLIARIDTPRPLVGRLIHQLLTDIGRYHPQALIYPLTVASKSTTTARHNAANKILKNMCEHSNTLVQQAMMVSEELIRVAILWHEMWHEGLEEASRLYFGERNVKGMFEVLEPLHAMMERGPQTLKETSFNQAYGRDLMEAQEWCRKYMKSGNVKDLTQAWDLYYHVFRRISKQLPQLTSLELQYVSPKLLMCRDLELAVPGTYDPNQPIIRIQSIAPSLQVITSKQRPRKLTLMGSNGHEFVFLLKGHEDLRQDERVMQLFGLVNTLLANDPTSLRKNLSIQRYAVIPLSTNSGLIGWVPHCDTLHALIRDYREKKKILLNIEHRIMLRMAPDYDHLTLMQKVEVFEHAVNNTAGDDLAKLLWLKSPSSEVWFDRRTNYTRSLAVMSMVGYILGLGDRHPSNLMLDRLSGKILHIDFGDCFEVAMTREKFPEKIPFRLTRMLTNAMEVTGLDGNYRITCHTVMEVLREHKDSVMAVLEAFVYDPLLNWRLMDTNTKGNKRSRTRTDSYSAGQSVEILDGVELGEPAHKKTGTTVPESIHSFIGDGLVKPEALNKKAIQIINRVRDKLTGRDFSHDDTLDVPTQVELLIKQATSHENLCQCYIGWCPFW

As to `Cc1nn(C)c(C)c1-n1c(=O)n(C)c2cnc3ccc(-c4ccccc4)cc3c21` [Example 37.2, 3-Methyl-8-phenyl-1-(1,3,5-trimethyl-1H-pyrazol-4-yl)-1,3-dihydro-imidazo[4,5-c]quinolin-2-one], the solubility in series [1] (setting [11]) turned out to be 355 µg/mL (≈ 926 µM). In addition, the values for the IC50 in [2], in [3] and in series [4] were 250 nM, 465 nM and 335 nM, respectively.

Take `CCn1nccc1-n1c(=O)n(C)c2cnc3ccc(-c4ccc(OC)c(OC)c4)cc3c21` [Example 1.2, 8-(3,4-Dimethoxy-phenyl)-1-(2-ethyl-2H-pyrazol-3-yl)-3-methyl-1,3-dihydro-imidazo[4,5-c]quinolin-2-one]: the 50% inhibitory concentration (IC50) came out at 21 nM in series [5]; 280 nM in series [6]; 33 nM in series [7]; 66 nM in series [8]; 50 nM in series [2]; 155 nM in series [9]. In addition, the half-maximal inhibitory concentration (IC50) in series [3] is 61 nM; in series [4], 216 nM.

Turning to `Cc1nn(C)cc1-n1c(=O)n(C)c2cnc3ccc(-c4ccc(-c5nn[nH]n5)nc4)cc3c21` [Example 123, 1-(1,3-Dimethyl-1H-pyrazol-4-yl)-3-methyl-8-[6-(2H-tetrazol-5-yl)-pyridin-3-yl]-1,3-dihydro-imidazo[4,5-c]quinolin-2-one], the solubility in series [1] (setting [11]) was 65 µg/mL (≈ 148 µM). For the same compound, the results for the IC50 in series [2], in series [9] and in [4] were 446 nM, 232 nM and 173 nM, respectively.

On to `Cc1nn(C)cc1-n1c(=O)n(C)c2cnc3ccc(-c4ccc(NCCO)nc4)cc3c21` [Example 21.2], for which the half-maximal inhibitory concentration (IC50) in series [5] was found to be 273 nM; in series [6] it was 205 nM; in series [10], 666 nM; in [7] it was 375 nM; in [8] it was 602 nM; in [2], 32 nM. For the same compound, the figures for the IC50 in [3] and in series [4] were 18 nM and 391 nM, respectively.

As for `Cc1nn(C)cc1-n1c(=O)n(C)c2cnc3ccc(-c4cc(O)cc(F)c4)cc3c21` [Example 33, 1-(1,3-Dimethyl-1H-pyrazol-4-yl)-8-(3-fluoro-5-hydroxy-phenyl)-3-methyl-1,3-dihydro-imidazo[4,5-c]quinolin-2-one], the 50% inhibitory concentration (IC50) in series [5] is 214 nM; in series [6], 46 nM; in series [7], 162 nM; in [8], 399 nM; in series [2] it was 9 nM; in series [9] it was 110 nM. The IC50 in series [3] stood at 16 nM; in series [4] it was 128 nM.

`COc1ncc(-c2ccc3ncc4c(c3c2)n(-c2cn(C)nc2C)c(=O)n4C)cc1F` [Example 13, 1-(1,3-Dimethyl-1H-pyrazol-4-yl)-8-(5-fluoro-6-methoxy-pyridin-3-yl)-3-methyl-1,3-dihydro-imidazo[4,5-c]quinolin-2-one]: the IC50 in series [6] came out at 25 nM; in series [10], 10 nM; in [2], 12 nM; in series [9], 63 nM; in series [3] it was 15 nM; in series [4], 87 nM.

In the case of `COc1ccc(-c2ccc3ncc4c(c3c2)n(-c2cn(C)nc2Cl)c(=O)n4C)cc1OC` [Example 1.10, 1-(3-Chloro-1-methyl-1H-pyrazol-4-yl)-8-(3,4-dimethoxy-phenyl)-3-methyl-1,3-dihydro-imidazo[4,5-c]quinolin-2-one], the IC50 is under 5 nM in [5]; 6 nM in series [6]; 1 nM in series [10]; under 5 nM in series [7]; 5 nM in series [8]; 9 nM in series [2]. Besides, the concentration for half-maximal inhibition (IC50) in series [3] was found to be 10 nM; in [4], 238 nM.

Turning to `Cc1nn(C)cc1-n1c(=O)n(C)c2cnc3ccc(-c4cncc(NS(C)(=O)=O)c4)cc3c21` [Example 120, N-{5-[1-(1,3-Dimethyl-1H-pyrazol-4-yl)-3-methyl-2-oxo-2,3-dihydro-1H-imidazo[4,5-c]quinolin-8-yl]-pyridin-3-yl}-methanesulfonamide], the IC50 was determined as 18 nM in series [6]; 355 nM in series [10]; 11 nM in series [2]; 5 nM in [9]; 10 nM in series [3]; 116 nM in series [4].

`Cc1nn(C)cc1-n1c(=O)n(C)c2cnc3ccc(-c4ccc(C(=O)N(C)C)cc4)cc3c21` [Example 48, 4-[1-(1,3-Dimethyl-1H-pyrazol-4-yl)-3-methyl-2-oxo-2,3-dihydro-1H-imidazo[4,5-c]quinolin-8-yl]-N,N-dimethyl-benzamide] gave a solubility in [1] (pH 6.8) of 2 µg/mL (≈ 4.54 µM). For the same compound, the half-inhibitory concentration (IC50) in [4] stood at 760 nM.

For orientation: solubility means how much of the substance goes into solution per volume. Usually IC50 stands for the concentration at which inhibition is half-maximal.
